# In PMC11149339, “Necessity for higher teicoplanin doses in older adults: a multicenter prospective observational study in China” (BMC Geriatrics, 2024):
# Experiment: Therapeutic drug monitoring of teicoplanin trough concentration (Cmin) during treatment, LC-MS/MS
# Format: in vivo, human
# Conditions: for TDM ≤ 7d (teicoplanin trough concentration) / TDM ≥ 15d (teicoplanin trough concentration): median [IQR], LC-MS/MS
# Protocol: Teicoplanin (Targocid, Sanofi, Dublin, Ireland) was administered intravenously for 30 min. The prescribed dose regimens were at the discretion of treating physicians, and the recommended regimens were not always followed.
# Blood samples (5 mL) were collected from the elbow into ethylenediaminetetraacetic acid-containing Vacutainers® (Becton Dickinson, Milan, Italy) in the morning before teicoplanin administration and after drug withdrawal. Samples were promptly refrigerated and centrifuged at 2500 × g for 10 min before 2 mL of supernatant was preserved at -20 °C for subsequent analysis. Teicoplanin concentrations were determined using liquid chromatography-tandem mass spectrometry. The linear range of the method was 1.0–100.0 mg/L, and the lower limit of quantification was 1.0 mg/L. The relative standard deviation of intra- and inter-batch precision was ≤ 10%.
# Teicoplanin concentrations were dynamically monitored. Concentrations at 3, ≤ 7, 8–14, and ≥ 15 days after the first dose and within 2 h of the next scheduled dose were recorded as TDM3d, TDM≤7d, TDM8-14d, and TDM≥15d, respectively. Concentrations at 3, ≤ 7, 8–14, and ≥ 15 days after the last teicoplanin dose (withdrawal) were recorded as TDMw3d, TDMw≤7d, TDMw8-14d, and TDMw≥15d. respectively (Fig. 1a). The Cmin target was ≥ 10 mg/L [6, 7, 23]; a concentration < 10 mg/L was considered suboptimal. Average TDM (TDMa) was defined as the mean Cmin after 3 days of treatment.
# [1] = ≤ 7 days after first dose, LR-A + MR-A
# [2] = ≤ 7 days after first dose, LR-B + MR-A
# [3] = ≤ 7 days after first dose, LR-B + MR-B
# [4] = ≤ 7 days after first dose, LR-C + MR-B
# [5] = ≤ 7 days after first dose, LR-C + MR-C
# [6] = ≥ 15 days after first dose, LR-A + MR-A
# [7] = ≥ 15 days after first dose, LR-B + MR-A
# [8] = ≥ 15 days after first dose, LR-B + MR-B
# [9] = ≥ 15 days after first dose, LR-C + MR-B
substance,measurement,setting,value
Teicoplanin,target concentration achievement rate (≥ 10 mg/L),"TDM8-14d, LR-B + MR-A regimen",66.0%
same,target concentration achievement rate (≥ 10 mg/L),"TDM8-14d, LR-B + MR-B regimen",75.0%
same,target concentration achievement rate (≥ 10 mg/L),"TDM8-14d, LR-C + MR-C regimen",100%
same,target concentration achievement rate (≥ 10 mg/L),"TDM3d, LR-A + MR-A regimen",0%
same,target concentration achievement rate (≥ 10 mg/L),"TDM3d, LR-B + MR-A regimen",10.5%
same,target concentration achievement rate (≥ 10 mg/L),"TDM3d, LR-B + MR-B regimen",50.0%
same,target concentration achievement rate (≥ 10 mg/L),"TDM3d, LR-C + MR-B regimen",62.5%
same,target concentration achievement rate (≥ 10 mg/L),"TDM3d, LR-C + MR-C regimen",78.6%
same,target concentration achievement rate (≥ 10 mg/L),"TDM≤7d, LR-A + MR-A regimen",18.3%
same,target concentration achievement rate (≥ 10 mg/L),"TDM≤7d, LR-B + MR-A regimen",24.1%
same,target concentration achievement rate (≥ 10 mg/L),"TDM≤7d, LR-B + MR-B regimen",57.2%
same,target concentration achievement rate (≥ 10 mg/L),"TDM≤7d, LR-C + MR-B regimen",56.2%
same,target concentration achievement rate (≥ 10 mg/L),"TDM≤7d, LR-C + MR-C regimen",85.7%
same,target concentration achievement rate (≥ 10 mg/L),"TDM≥15d, LR-A + MR-A regimen",77.8%
same,target concentration achievement rate (≥ 10 mg/L),"TDM≥15d, LR-B + MR-A regimen",84.6%
same,target concentration achievement rate (≥ 10 mg/L),"TDM≥15d, LR-B + MR-B regimen",100%
same,target concentration achievement rate (≥ 10 mg/L),"TDM≥15d, LR-C + MR-B regimen",100%
same,patients achieving therapeutic concentrations,"after 14 days of administration, all patients",more than 80%
same,"patients with TDM 10–20 mg/L ≤ 7d, N (%)",[1],6(12.2)
same,"patients with TDM < 10 mg/L ≤ 7d, N (%)",[1],40(81.7)
same,"patients with TDM > 20 mg/L ≤ 7d, N (%)",[1],3(6.1)
same,TDM ≤ 7d (teicoplanin trough concentration),"≤ 7 days after first dose, LR-A + MR-A (200 mg once daily, then 200 mg once daily)","6.4[4.7,8.2] mg/L"
same,"patients with TDM 10–20 mg/L ≤ 7d, N (%)",[2],10(18.5)
same,"patients with TDM < 10 mg/L ≤ 7d, N (%)",[2],41(75.9)
same,"patients with TDM > 20 mg/L ≤ 7d, N (%)",[2],3(5.6)
same,TDM ≤ 7d (teicoplanin trough concentration),"≤ 7 days after first dose, LR-B + MR-A (400 mg once daily, then 200 mg once daily)","7.2[5.5,10.0] mg/L"
same,"patients with TDM 10–20 mg/L ≤ 7d, N (%)",[3],2(28.6)
same,"patients with TDM < 10 mg/L ≤ 7d, N (%)",[3],3(42.8)
same,"patients with TDM > 20 mg/L ≤ 7d, N (%)",[3],2(28.6)
same,TDM ≤ 7d (teicoplanin trough concentration),"≤ 7 days after first dose, LR-B + MR-B (400 mg once daily, then 400 mg once daily)","12.42[8.3,22.0] mg/L"
same,"patients with TDM 10–20 mg/L ≤ 7d, N (%)",[4],9(56.2)
same,"patients with TDM < 10 mg/L ≤ 7d, N (%)",[4],7(43.8)
same,"patients with TDM > 20 mg/L ≤ 7d, N (%)",[4],0
same,TDM ≤ 7d (teicoplanin trough concentration),"≤ 7 days after first dose, LR-C + MR-B (400 mg at 12-h intervals, then 400 mg once daily)","11.0[7.0,12.6] mg/L"
same,"patients with TDM 10–20 mg/L ≤ 7d, N (%)",[5],8(57.1)
same,"patients with TDM < 10 mg/L ≤ 7d, N (%)",[5],2(14.3)
same,"patients with TDM > 20 mg/L ≤ 7d, N (%)",[5],4(28.6)
same,TDM ≤ 7d (teicoplanin trough concentration),"≤ 7 days after first dose, LR-C + MR-C (400 mg at 12-h intervals, then 400 mg twice daily)","14.4[12.0,21.2] mg/L"
same,TDM ≤ 7d (teicoplanin trough concentration),"≤ 7 days after first dose, all patients (N = 204), iv","7.6[5.6,12.2] mg/L"
same,"patients having suboptimal concentrations (< 10 mg/L), TDM≤7d","≤ 7 days after first dose, all patients, 93 patients",66.4%
same,"patients with TDM 10–20 mg/L ≥ 15d, N (%)",[6],16(59.3)
same,"patients with TDM < 10 mg/L ≥ 15d, N (%)",[6],6(22.2)
same,"patients with TDM > 20 mg/L ≥ 15d, N (%)",[6],5(18.5)
same,TDM ≥ 15d (teicoplanin trough concentration),"≥ 15 days after first dose, LR-A + MR-A (200 mg once daily, then 200 mg once daily)","12.7[10.1,17.4] mg/L"
same,"patients with TDM 10–20 mg/L ≥ 15d, N (%)",[7],15(57.7)
same,"patients with TDM < 10 mg/L ≥ 15d, N (%)",[7],4(15.4)
same,"patients with TDM > 20 mg/L ≥ 15d, N (%)",[7],7(26.9)
same,TDM ≥ 15d (teicoplanin trough concentration),"≥ 15 days after first dose, LR-B + MR-A (400 mg once daily, then 200 mg once daily)","15.7[11.9,22.0] mg/L"
same,"patients with TDM 10–20 mg/L ≥ 15d, N (%)",[8],1(50.0)
same,"patients with TDM < 10 mg/L ≥ 15d, N (%)",[8],0
same,"patients with TDM > 20 mg/L ≥ 15d, N (%)",[8],1(50.0)
same,TDM ≥ 15d (teicoplanin trough concentration),"≥ 15 days after first dose, LR-B + MR-B (400 mg once daily, then 400 mg once daily)","20.3[13.8,20.4] mg/L"
same,"patients with TDM 10–20 mg/L ≥ 15d, N (%)",[9],1(33.3)
same,"patients with TDM < 10 mg/L ≥ 15d, N (%)",[9],0
same,"patients with TDM > 20 mg/L ≥ 15d, N (%)",[9],2(66.7)
same,TDM ≥ 15d (teicoplanin trough concentration),"≥ 15 days after first dose, LR-C + MR-B (400 mg at 12-h intervals, then 400 mg once daily)","23.0[19.4,28.6] mg/L"
same,TDM ≥ 15d (teicoplanin trough concentration),"≥ 15 days after first dose, all patients (N = 204), iv","15.8[11.0,21.8] mg/L"
same,"patients having suboptimal concentrations (< 10 mg/L), TDM≥15d","≥ 15 days after first dose, all patients, 10 patients",17.0%
